US20150031572A1, “MEANS AND METHODS FOR ASSESSING NEURONAL TOXICITY” (priority 2012, published 2015)
Structures can show the parent of a compound that is named as a salt. Marks after values point to notes of the source that are not given here. Blank lines part the entries; values can stand above or below the molecule they belong to.

Assay: Plasma metabolite profiling (GC-MS, LC-MS, SPE-LC-MS) of rats dosed once daily over 28 days; treatment ratios versus untreated control
Format: in vivo, rat
Details: for DAG (C18:1,C18:2), ratio versus control / Serotonin (5-HT), ratio versus control: Table 8b
Method: A group of each 5 male and female rats was dosed once daily with the indicated compounds (see Table 10, below for compounds, applied doses and administration details) over 28 days.
Each dose group in the studies consisted of five rats per sex. Additional groups of each 5 male and female animals served as controls. Before starting the treatment period, animals, which were 62-64 days old when supplied, were acclimatized to the housing and environmental conditions for 7 days. All animals of the animal population were kept under the same constant temperature (20-24±3° C.) and the same constant humidity (30-70%). The animals of the animal population were fed ad libitum. The food to be used was essentially free of chemical or microbial contaminants. Drinking water was also offered ad libitum. Accordingly, the water was free of chemical and microbial contaminants as laid down in the European Drinking Water Directive 98/83/EG. The illumination period was 12 hours light followed by 12 hours darkness (12 hours light, from 6:00 to 18:00, and 12 hours darkness, from 18:00 to 6:00). […] The test substances (compounds) in the Tables 1 to 9 below were dosed and administered as described in the Table 10 above.
In the morning of day 7, 14, and 28, blood was taken from the retro-orbital venous plexus from fasted anaesthetized animals. From each animal, 1 ml of blood was collected with EDTA as anticoagulant. The samples were centrifuged for generation of plasma. All plasma samples were covered with a N2 atmosphere and then stored at −80° C. until analysis.
For mass spectrometry-based metabolite profiling analyses plasma samples were extracted and a polar and a non-polar (lipid) fraction was obtained. For GC-MS analysis, the non-polar fraction was treated with methanol under acidic conditions to yield the fatty acid methyl esters. Both fractions were further derivatised with O-methyl-hydroxyamine hydrochloride and pyridine to convert Oxogroups to O-methyloximes and subsequently with a silylating agent before analysis. In LC-MS analysis, both fractions were reconstituted in appropriate solvent mixtures. HPLC was performed by gradient elution on reversed phase separation columns. Mass spectrometric detection which allows target and high sensitivity MRM (Multiple Reaction Monitoring) profiling in parallel to a full screen analysis was applied as described in WO2003073464.
Steroids and their metabolites were measured by online SPE-LC-MS (Solid phase extraction-LC-MS).
Following comprehensive analytical validation steps, the data for each analyte were normalized against data from pool samples. These samples were run in parallel through the whole process to account for process variability. The significance of treatment group values specific for sex, treatment duration and metabolite was determined by comparing means of the treated groups to the means of the respective untreated control groups using WELCH-test and quantified with treatment ratios versus control and p-values.
The identification of the most important biomarkers per toxicity pattern was done by a ranking of the analytes in the tables below. Therefore the metabolic changes in reference treatments of a given pattern (shown in the table) were compared with changes of the same metabolite in other unrelated treatments. […] The maximum absolute value of the respective TVALUE was taken to indicate the most important metabolite for the pattern.

[1] = plasma, female rats, day 28, low dose, Table 1c
[2] = plasma, female rats, day 28, low dose, Table 1d
[3] = plasma, male rats, day 28, low dose, Table 1b
[4] = plasma, female rats, day 7, high dose, Table 5a
[5] = plasma, female rats, day 7, high dose, Table 5b
[6] = plasma, female rats, day 7, high dose, Table 6c
[7] = plasma, female rats, day 7, high dose, Table 6d
[8] = plasma, female rats, day 14, high dose, Table 5a
[9] = plasma, female rats, day 14, high dose, Table 5b
[10] = plasma, female rats, day 14, high dose, Table 6c
[11] = plasma, female rats, day 14, high dose, Table 6d
[12] = plasma, female rats, day 28, high dose, Table 5a
[13] = plasma, female rats, day 28, high dose, Table 5b
[14] = plasma, female rats, day 28, high dose, Table 6c
[15] = plasma, female rats, day 28, high dose, Table 6d
[16] = plasma, male rats, day 7, high dose, Table 8a
[17] = plasma, male rats, day 7, high dose
[18] = plasma, male rats, day 14, high dose, Table 8a
[19] = plasma, male rats, day 14, high dose
[20] = plasma, male rats, day 28, high dose, Table 8a
[21] = plasma, male rats, day 28, high dose

Coenzyme Q9, ratio versus control [1]: 1.22 * | Valine, ratio versus control [1]: 1.36 * | Cysteine, ratio versus control [2]: 0.86 * | Glutamate, ratio versus control [2]: 0.81 * | Pyruvate, ratio versus control [2]: 0.65 * | myo-Inositol, ratio versus control [2]: 0.69 * | 3-Indoxylsulfate, ratio versus control (plasma, male rats, day 28, low dose, Table 1a): 1.78^ | Cysteine, ratio versus control [3]: 0.73 * | Ketoleucine, ratio versus control [3]: 0.76 * | Malate, ratio versus control [3]: 0.84 * | Phosphatidylcholine (C16:0, C20:4), ratio versus control [3]: 0.99 * | Phosphatidylcholine (C16:0, C22_6), ratio versus control [3]: 0.95 * | Isoleucine, ratio versus control (rat, in vivo): 1.23 * | Pantothenic acid, ratio versus control (rat, in vivo): 1.25 * | Phosphate (inorganic and organic phosphates), ratio versus control (rat, in vivo): 1.25 * | alpha-Tocopherol, ratio versus control (rat, in vivo): 1.16 *
Compound: O=C1NC(=O)C(c2ccccc2)(c2ccccc2)N1 [Phenytoin]

3-Hydroxybutyrate, ratio versus control [4]: 1.49* | Histidine, ratio versus control [4]: 1.31* | Isoleucine, ratio versus control [4]: 1.9* | Leucine, ratio versus control [4]: 1.98* | Valine, ratio versus control [4]: 1.49* | 4-Hydroxy-3-methoxyphenylglycol (HMPG), ratio versus control [5]: 0.73* | Glucose, ratio versus control [5]: 0.94 | Lactate, ratio versus control [5]: 0.45* | Malate, ratio versus control [5]: 0.67* | Metanephrine, ratio versus control [5]: 0.55* | Pyruvate, ratio versus control [5]: 0.37* | Uric acid, ratio versus control [5]: 0.92 | 4-Hydroxysphinganine (t18:0, Phytosphingosine), total, ratio versus control [6]: 1.03 | Docosahexaenoic acid (C22:cis[4,7,10,13,16,19]6), ratio versus control [6]: 1.67* | Docosapentaenoic acid (C22:cis[7,10,13,16,19]5), ratio versus control [6]: 1.98* | Phosphatidylcholine (C16:0,C16:0), ratio versus control [6]: 1.11* | Phosphatidylcholine No 02, ratio versus control [6]: 1.05 | TAG (C16:0,C16:1), ratio versus control [6]: 2.83* | TAG (C16:0,C18:2), ratio versus control [6]: 2.65* | TAG (C18:2,C18:2), ratio versus control [6]: 1.99* | TAG (C18:2,C18:3), ratio versus control [6]: 1.83* | TAG (C18:3,C18:2,C18:1), ratio versus control [6]: 2.04* | TAG No 059, ratio versus control [6]: 2.1* | 4-Hydroxyphenylpyruvate, ratio versus control [7]: 0.61* | Glycine, ratio versus control [7]: 0.82* | Lactate, ratio versus control [7]: 0.45* | Lysophosphatidylcholine (C16:0), ratio versus control [7]: 0.97* | Uric acid, ratio versus control [7]: 0.92 | 3-Hydroxybutyrate, ratio versus control [8]: 1.55* | Leucine, ratio versus control [8]: 1.44* | Valine, ratio versus control [8]: 1.24* | 4-Hydroxy-3-methoxyphenylglycol (HMPG), ratio versus control [9]: 0.67* | Glucose, ratio versus control [9]: 0.87* | Lactate, ratio versus control [9]: 0.61* | Malate, ratio versus control [9]: 0.66* | Metanephrine, ratio versus control [9]: 0.26* | Pyruvate, ratio versus control [9]: 0.33* | Uric acid, ratio versus control [9]: 0.64* | Docosahexaenoic acid (C22:cis[4,7,10,13,16,19]6), ratio versus control [10]: 1.58* | Docosapentaenoic acid (C22:cis[7,10,13,16,19]5), ratio versus control [10]: 2.01* | Palmitic acid (C16:0), ratio versus control [10]: 1.24* | Phosphatidylcholine (C16:0,C16:0), ratio versus control [10]: 1.2* | TAG (C16:0,C16:1), ratio versus control [10]: 2.16* | TAG (C16:0,C18:1,C18:3), ratio versus control [10]: 1.52* | TAG (C16:0,C18:2), ratio versus control [10]: 1.82* | TAG (C18:2,C18:2), ratio versus control [10]: 1.5* | TAG (C18:3,C18:2,C18:1), ratio versus control [10]: 1.63* | TAG No 059, ratio versus control [10]: 2.21* | 4-Hydroxyphenylpyruvate, ratio versus control [11]: 0.62* | Glycine, ratio versus control [11]: 0.71* | Lactate, ratio versus control [11]: 0.61* | Lysophosphatidylcholine (C16:0), ratio versus control [11]: 0.98* | Uric acid, ratio versus control [11]: 0.64* | 3-Hydroxybutyrate, ratio versus control [12]: 2.04* | Galactose, lipid fraction, ratio versus control [12]: 1.21 | Glutamine, ratio versus control [12]: 1.31* | Isoleucine, ratio versus control [12]: 1.3* | Leucine, ratio versus control [12]: 1.27* | 4-Hydroxy-3-methoxyphenylglycol (HMPG), ratio versus control [13]: 0.8 | Glucose, ratio versus control [13]: 0.85* | Lactate, ratio versus control [13]: 0.46* | Malate, ratio versus control [13]: 0.55* | Metanephrine, ratio versus control [13]: 0.38* | Pyruvate, ratio versus control [13]: 0.36* | Uric acid, ratio versus control [13]: 0.68* | 4-Hydroxysphinganine (t18:0, Phytosphingosine), total, ratio versus control [14]: 1.12 | Docosahexaenoic acid (C22:cis[4,7,10,13,16,19]6), ratio versus control [14]: 1.24* | Docosapentaenoic acid (C22:cis[7,10,13,16,19]5), ratio versus control [14]: 1.76* | Galactose, lipid fraction, ratio versus control [14]: 1.21 | Phosphatidylcholine (C16:0,C16:0), ratio versus control [14]: 1.07 | Phosphatidylcholine (C16:0,C20:5), ratio versus control [14]: 1.1* | Phosphatidylcholine (C16:1,C18:2), ratio versus control [14]: 1.07 | Phosphatidylcholine No 02, ratio versus control [14]: 1.31* | TAG (C16:0,C16:1), ratio versus control [14]: 2.14* | TAG (C16:0,C18:1,C18:3), ratio versus control [14]: 2.06* | TAG (C16:0,C18:2), ratio versus control [14]: 1.84* | TAG (C18:2,C18:3), ratio versus control [14]: 1.93* | TAG (C18:3,C18:2,C18:1), ratio versus control [14]: 1.27* | TAG No 059, ratio versus control [14]: 1.48* | 4-Hydroxyphenylpyruvate, ratio versus control [15]: 0.36* | Glycine, ratio versus control [15]: 0.86* | Lactate, ratio versus control [15]: 0.46* | Lysophosphatidylcholine (C16:0), ratio versus control [15]: 0.97* | Uric acid, ratio versus control [15]: 0.68* | 4-Hydroxysphinganine (t18:0, Phytosphingosine), total, ratio versus control (rat, in vivo): 1.46* | Isoleucine, ratio versus control (rat, in vivo): 1.46* | Phosphatidylcholine No 02, ratio versus control (rat, in vivo): 1.17* | TAG (C16:0,C18:1,C18:3), ratio versus control (rat, in vivo): 1.41* | TAG (C18:2,C18:2), ratio versus control (rat, in vivo): 1.41* | TAG (C18:2,C18:3), ratio versus control (rat, in vivo): 1.37* | Valine, ratio versus control (rat, in vivo): 1.12*
Compound: OCCOCCN1CCN(C2=Nc3ccccc3Sc3ccccc32)CC1 [Quetiapine fumarate]

Ceramide (d18:1,C24:1), ratio versus control [16]: 1.77 | threo-Sphingosine, ratio versus control [16]: 1.2 | DAG (C18:1,C18:2), ratio versus control [17]: 0.65* | Serotonin (5-HT), ratio versus control [17]: 0.33* | 4-Hydroxysphinganine (t18:0, Phytosphingosine), total, ratio versus control [18]: 1.51* | Ceramide (d18:1,C24:1), ratio versus control [18]: 1.91* | DAG (C18:1,C18:2), ratio versus control [19]: 0.64* | Serotonin (5-HT), ratio versus control [19]: 0.07* | 4-Hydroxysphinganine (t18:0, Phytosphingosine), total, ratio versus control [20]: 2.57* | Ceramide (d18:1,C24:1), ratio versus control [20]: 1.85* | threo-Sphingosine, ratio versus control [20]: 2.2* | DAG (C18:1,C18:2), ratio versus control [21]: 0.63* | Serotonin (5-HT), ratio versus control [21]: 0.28* | 4-Hydroxysphinganine (t18:0, Phytosphingosine), total, ratio versus control (rat, in vivo): 1.34* | threo-Sphingosine, ratio versus control (rat, in vivo): 1.45*
Compound: CNCCC(Oc1ccc(C(F)(F)F)cc1)c1ccccc1 (centres unmarked) [Fluoxetine hydrochloride]
